Test results from patent publication EP2951180B1, “2,6,7,8 SUBSTITUTED PURINES AS HDM2 INHIBITORS” (Merck Sharp & Dohme Corp., priority 2013, dated 2014).

Molecular target: T1, HDM2 (Homo sapiens, UniProt Q00987)
T1 construct: Thioredoxin (N); made in house; host or cells: E. coli strain BL21(DE3)Rosetta
Assay: HDM2 FRET assay (inhibition of binding of FITC labeled p53-pocket peptide to HDM2)
Conditions: 0.5 nM HDM2 (residues 17 to 125), 3nM peptide, two hour incubation at room temperature; read-out: FRET IC50
In short: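 TR-FRET with 0.5 nM His-tagged recombinant HDM2, 3 nM FITC-labelled p53 peptide and 0.25 nM Tb-anti-His antibody in PBS, 0.01% BSA, 0.01% Tween-20, 0.1% DMSO. IC50 from em520/em495 ratio over 10-point dilutions, 4-parameter logistic fit.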

T1 sequence (Q00987 17-125): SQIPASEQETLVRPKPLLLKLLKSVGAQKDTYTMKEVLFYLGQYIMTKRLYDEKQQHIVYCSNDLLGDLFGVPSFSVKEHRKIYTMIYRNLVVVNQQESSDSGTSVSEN

Row | Structure (SMILES) | IC50 [nM]
1 | C[C@H]1CC[C@H](Cn2c(N3CCO[C@H]4CCC[C@@H]43)nc3nc(-c4noc(=O)[nH]4)nc(-c4cncc(Cl)c4)c32)CC1 [Example 16.86, 3-{6-(5-chloropyridin-3-yl)-8-[(4aS,7aS)-hexahydrocyclopenta [b][1,4]oxazin-4(4aH)-yl]-7-[(trans-4-methylcyclohexyl)methyl]-7H-purin-2-yl}-1,2,4-oxadiazol-5(4H)-one] | 344
2 | Cc1cccc(-c2nc3nc(C(N)=O)nc(N[C@H](C)C4CC4)c3n2Cc2ccc(C(F)(F)F)cc2)c1 [Example 12.27, 6-{[(1R)-1-cyclopropylethyl]amino}-8-(3-methylphenyl)-7-[4-(trifluoromethyl)benzyl]-7H-purine-2-carboxamide] | 2040
3 | C[C@H]1CC[C@H](Cn2c(N3CCC[C@H]3C(F)(F)F)nc3nc(-c4noc(=O)[nH]4)nc(-c4cccc(Cl)c4)c32)CC1 [Example 16.69, 3-{6-(3-chlorophenyl)-7-[(trans-4-methylcyclohexyl)methyl]-8-[(2S)-2-(trifluoromethyl)pyrrolidin-1-yl]-7H-purin-2-yl}-1,2,4-oxadiazol-5 (4H)-one] | 0.918
4 | Cc1cccc(-c2nc3nc(-c4nc[nH]n4)nc(N[C@H](C)C4CC4)c3n2Cc2ccc(C(F)(F)F)cc2)c1 [Example 12.28, N-[(1R)-1-cyclopropylethyl]-8-(3-methylphenyl)-2-(1H-1,2,4-triazol-3-yl)-7-[4-(trifluoromethyl)benzyl]-7H-purin-6-amine] | 314

Same assay, conditions: Table 6; read-out: FRET IC50

Row | Structure (SMILES) | IC50 [nM]
5 | Cc1cccc(-c2nc3nc(C(=O)O)nc(N4CCCC4)c3n2Cc2ccc(C(F)(F)F)cc2)c1 [Example 6.23, 8-(3-methylphenyl)-6-pyrrolidin-1-yl-7-[4-(trifluoromethyl)benzyl]-7H-purine-2-carboxylic acid] | 8270

Same assay, conditions: Table 9; read-out: FRET IC50

Row | Structure (SMILES) | IC50 [nM]
6 | CC(C)CC1CCCCN1c1nc2nc(C(=O)O)nc(N[C@H](C)C3CCC3)c2n1Cc1ccc(C(F)(F)F)cc1 (stereo partly drawn) [Example 9.120, 6-{[(1R)-1-cyclobutylethyl]amino}-8-[2-(2-methylpropyl)piperidin-1-yl]-7-[4-(trifluoromethyl)benzyl]-7H-purine-2-carboxylic acid] | 5.32
7 | C[C@@H](Nc1nc(C(=O)O)nc2nc(N3CCCC34CCc3ccccc34)n(Cc3ccc(C(F)(F)F)cc3)c12)C1CCC1 (stereo partly drawn) [Example 9.74, 6-{[(1R)-1-cyclobutylethyl]amino}-8-(2,3-dihydro-1'H-spiro[indene-1,2'-pyrrolidin]-1'-yl)-7-[4-(trifluoromethyl)benzyl]-7H-purine-2-carboxylic acid] | 12.9
8 | C[C@@H](Nc1nc(C(=O)O)nc2nc(N3CCCC3c3cccc(F)c3)n(Cc3ccc(C(F)(F)F)cc3)c12)C1CCC1 (stereo partly drawn) [Example 9.60, 6-{[(1R)-1-cyclobutylethyl]amino}-8-[2-(3-fluorophenyl)pyrrolidin-1-yl]-7-[4-(trifluoromethyl)benzyl]-7H-purine-2-carboxylic acid] | 10.2
9 | C[C@@H](Nc1nc(C(=O)O)nc2nc(N(C)Cc3ccccc3)n(Cc3ccc(C(F)(F)F)cc3)c12)C1CCC1 [Example 9.14, 8-[benzyl(methyl)amino]-6-{[(1R)-1-cyclobutylethyl]amino}-7-[4-(trifluoromethyl)benzyl]-7H-purine-2-carboxylic acid] | 5.62
10 | CC(C)CC1CCCN1c1nc2nc(-c3noc(=O)[nH]3)nc(N[C@H](C)C3CCC3)c2n1Cc1ccc(C(F)(F)F)cc1 (stereo partly drawn) [Example 9.91, 3-(6-{[(1R)-1-cyclobutylethyl]amino}-8-[2-(2-methylpropyl)pyrrolidin-1-yl]-7-[4-(trifluoromethyl)benzyl]-7H-purin-2-yl)-1,2,4-oxadiazol-5(4H)-one] | 19.4
11 | C[C@@H](Nc1nc(C(=O)O)nc2nc(N3CCCCC3c3cccnc3)n(Cc3ccc(C(F)(F)F)cc3)c12)C1CCC1 (stereo partly drawn) [Example 9.114, 6-{[(1R)-1-cyclobutylethyl]amino}-8-(2-pyridin-3-ylpiperidin-1-yl)-7-[4-(trifluoromethyl)benzyl]-7H-purine-2-carboxylic acid] | 110

Same assay, conditions: Table 10; read-out: FRET IC50

Row | Structure (SMILES) | IC50 [nM]
12 | CC(c1nc2nc(C(=O)O)nc(N[C@H](C)C3CCC3)c2n1Cc1ccc(C(F)(F)F)cc1)N(C)Cc1ccccc1 (stereo partly drawn) [Example 10.12, 8-(1-(benzyl(methyl)amino)ethyl)-6-(((R)-1-cyclobutylethyl)amino)-7-(4-(trifluoromethyl)benzyl)-7H-purine-2-carboxylic acid] | 139

Same assay, conditions: Table 11; read-out: FRET IC50

Row | Structure (SMILES) | IC50 [nM]
13 | C[C@@H]1COC[C@@H](C)N1c1nc2nc(-c3noc(=O)[nH]3)nc(N[C@H](C)C3CCC3)c2n1C[C@H]1CC[C@H](C)CC1 [Example 11.129, 3-(6-{[(1R)-1-cyclobutylethyl]amino}-8-[(3R,5R)-3,5-dimethylmorpholin-4-yl]-7-[(trans-4-methylcyclohexyl)methyl]-7H-purin-2-yl)-1,2,4-oxadiazol-5(4H)-one] | 0.788
14 | C[C@@H](Nc1nc(-c2noc(=O)[nH]2)nc2nc(N3CCC(C)(O)C3)n(C[C@H]3CC[C@H](C)CC3)c12)C1CCC1 (stereo partly drawn) [Example 11.113, 3-(6-{[(1R)-1-cyclobutylethyl]amino}-8-(3-hydroxy-3-methylpyrrolidin-1-yl)-7-[(trans-4-methylcyclohexyl)methyl]-7H-purin-2-yl)-1,2,4-oxadiazol-5(2H)-one] | 57.7
15 | C[C@@H](Nc1nc(-c2nc(=O)o[nH]2)nc2nc(N3CCCC[C@@H]3C)n(C[C@H]3CC[C@H](C)CC3)c12)C1CCC1 (single isomer, unassigned) [Example 11.59] | 13.5
16 | C[C@@H]1CCCCN1c1nc2nc(-c3nc(=O)o[nH]3)nc(N[C@H](C)C3CCC3)c2n1C[C@H]1CC[C@H](C)CC1 (single isomer, unassigned) [Example 11.58] | 5.37
17 | C[C@@H](Nc1nc(-c2noc(=O)[nH]2)nc2nc(N3CCOCC3c3ccccc3Cl)n(C[C@H]3CC[C@H](C)CC3)c12)C1CCC1 (single isomer, unassigned) [Example 11.118] | 0.568
18 | C[C@@H](Nc1nc(-c2n[nH]c(=O)o2)nc2nc(N3CCOC4CCCC43)n(C[C@H]3CC[C@H](C)CC3)c12)C1CCC1 (single isomer, unassigned) [Example 11.140] | 9.87
19 | C[C@@H](Nc1nc(-c2n[nH]c(=O)o2)nc2nc(N3CCO[C@H](C)[C@@H]3C)n(C[C@H]3CC[C@H](C)CC3)c12)C1CCC1 (single isomer, unassigned) [Example 11.158] | 12.9
20 | CC(Nc1nc2nc(-c3noc(=O)[nH]3)nc(N[C@H](C)C3CCC3)c2n1C[C@H]1CC[C@H](C)CC1)c1cncnc1 (stereo partly drawn) [Example 11.85, 3-(6-{[(1R)-1-cyclobutylethyl]amino}-7-[(trans-4-methylcyclohexyl)methyl]-8-[(1-pyrimidin-5-ylethyl)amino]-7H-purin-2-yl)-1,2,4-oxadiazol-5(2H)-one] | 4.97

Same assay, conditions: Table 17.2; read-out: FRET IC50

Row | Structure (SMILES) | IC50 [nM]
21 | CC(=O)N1C[C@@H](C)N(c2nc3nc(-c4noc(=O)[nH]4)nc(N[C@H](C)C4CCC4)c3n2C[C@H]2CC[C@H](C)CC2)C[C@@H]1C [Example 17.22, 3-{8-[(2R,5S)-4-acetyl-2,5-dimethylpiperazin-1-yl]-6-{[(1R)-1-cyclobutylethyl]amino}-7-[(trans-4-methylcyclohexyl)methyl]-7H-purin-2-yl}-1,2,4-oxadiazol-5(4H)-one] | 4.35

Same assay, conditions: Table 21; read-out: FRET IC50

Row | Structure (SMILES) | IC50 [nM]
22 | C[C@@H](Nc1nc(C(=O)O)nc2nc(C3CCCC(=O)C3c3ccccc3)n(Cc3ccc(C(F)(F)F)cc3)c12)C1CCC1 (stereo partly drawn) [Example 21.11, 6-{[(1R)-1-cyclobutylethyl]amino}-8-(3-oxo-2-phenylcyclohexyl)-7-[4-(trifluoromethyl)benzyl]-7H-purine-2-carboxylic acid] | 8.72
23 | C[C@@H](Nc1nc(C(=O)O)nc2nc(C3CCCCC3c3ccccc3)n(Cc3ccc(C(F)(F)F)cc3)c12)C1CCC1 (stereo partly drawn) [Example 21.12, 6-{[(1R)-1-cyclobutylethyl]amino}-8-(2-phenylcyclohexyl)-7-[4-(trifluoromethyl)benzyl]-7H-purine-2-carboxylic acid] | 4.57

Same assay, conditions: Table 22; read-out: FRET IC50

Row | Structure (SMILES) | IC50 [nM]
24 | C[C@@H](Nc1nc(-c2noc(=O)[nH]2)nc2nc(C(C)(O)c3ccn(C)n3)n(C[C@H]3CC[C@H](C)CC3)c12)C1CCC1 (stereo partly drawn) [Example 22.55, 3-(6-{[(1R)-1-cyclobutylethyl]amino}-8-[1-hydroxy-1-(1-methyl-1H-pyrazol-3-yl)ethyl]-7-[(trans-4-methylcyclohexyl)methyl] -7H-purin-2-yl)-1,2,4-oxadiazol-5(2H)-one] | 22.7
25 | C[C@@H](Nc1nc(-c2noc(=O)[nH]2)nc2nc(C(O)(CO)c3ccccc3)n(C[C@H]3CC[C@H](C)CC3)c12)C1CCC1 (single isomer, unassigned) [Example 22.61] | 2.8
26 | C[C@@H](Nc1nc(-c2noc(=O)[nH]2)nc2nc(C(O)c3ccccc3)n(C[C@H]3CC[C@H](C)CC3)c12)C1CCC1 (stereo partly drawn) [Example 22.29, 3-(6-{[(1R)-1-cyclobutylethyl]amino}-8-[hydroxy(phenyl)methyl]-7-[(trans-4-methylcyclohexyl)methyl] -7H-purin-2-yl)-1,2,4-oxadiazol-5(4H)-one] | 1.66

Same assay, conditions: Table 23; read-out: FRET IC50

Row | Structure (SMILES) | IC50 [nM]
27 | CC1CCCCC1(F)c1nc2nc(-c3noc(=O)[nH]3)nc(-c3cncc(Cl)c3)c2n1C[C@H]1CC[C@H](C)CC1 (relative stereo) [Example 23.65, 3-{6-(5-chloropyridin-3-yl)-8-(1-fluoro-2-methylcyclohexyl)-7-[(trans-4-methylcyclohexyl)methyl] -7H-purin-2-yl}-1,2,4-oxadiazol-5(4H)-one] | 6.63
28 | COC(c1nc2nc(-c3noc(=O)[nH]3)nc(-c3cccc(Cl)c3)c2n1C[C@H]1CC[C@H](C)CC1)C1CCOCC1 (mixture of isomers) [Example 23.12, 3-{6-(3-chlorophenyl)-8-[methoxy(tetrahydro-2H-pyran-4-yl)methyl]-7-[(trans-4-methylcyclohexyl)methyl] -7H-purin-2-yl}-1,2,4-oxadiazol-5(4H)-one] | 13.3
